Laboratory results taken from patent US11185552B2, “Inhibitors of glucose-6-phosphate dehydrogenase for treating cardiovascular and pulmonary conditions” (ICHOR, LLC., priority 2016, dated 2021).

How the values were obtained:
[1] = test system: Bovine pulmonary artery rings; assay: Relaxation of KCl pre-contracted bovine pulmonary artery rings; conditions: pre-contracted with KCl (30 mM), Krebs buffer
Experimental: FIG. 6 is a graph showing bovine pulmonary artery rings that were incubated in Krebs buffer and pre-contracted with KCl (30 mM). These pre-contracted rings relaxed by G6PD inhibitors; PD109 (109), PD2124 (2124), PD2958 (2958) and PD4091 (4091) or dehydroepiandrosterone (DHEA).
Bovine pulmonary artery rings were incubated in Krebs buffer and pre-contracted with KCl (30 mM). These pre-contracted rings relaxed by G6PD inhibitors; PD109 (109), PD2124 (2124), PD2958 (2958) and PD4091 (4091) or dehydroepiandrosterone (DHEA) (FIG. 6).

[2] = test system: Rat pulmonary artery smooth muscle cells; assay: Cell number/proliferation by Cyquant assay; assay type: cell-based; conditions: 72 hr treatment, versus vehicle control
Experimental: (§1) FIGS. 4A and 4B are graphs showing results for rat pulmonary artery smooth muscle cells that were cultured in 15% DMEM media for 48 hr and cells were treated with newly synthesized G6PD drugs; PD109 (109), PD2124 (2124), PD2958 (2958) and PD4091 (4091) or vehicle control (Con) for 72 hr. Cell number/proliferation (FIG. 4A) and apoptosis (FIG. 4B) was determined by Cyquant and Caspase3/7 assay, respectively. Cell numbers were decreased by G6PD inhibitors (FIG. 4A). Cell apoptosis was increased by PD2958 (1 microM) N=5 in each group (FIG. 4B).
as §1, with “Rat” for “FIGS. 4A and 4B are graphs showing results for rat”, “cells” for “cells that”, “number/proliferation” for “number/proliferation (FIG. 4A)”, “apoptosis” for “apoptosis (FIG. 4B)”, “inhibitors.” for “inhibitors (FIG. 4A).”, “(FIGS. 4A and” for “(FIG.”

G6PD = G6PD (Homo sapiens, UniProt P11413); assay: G6PD activity inhibition (enzyme assay)
Sequence of G6PD (P11413 whole entry): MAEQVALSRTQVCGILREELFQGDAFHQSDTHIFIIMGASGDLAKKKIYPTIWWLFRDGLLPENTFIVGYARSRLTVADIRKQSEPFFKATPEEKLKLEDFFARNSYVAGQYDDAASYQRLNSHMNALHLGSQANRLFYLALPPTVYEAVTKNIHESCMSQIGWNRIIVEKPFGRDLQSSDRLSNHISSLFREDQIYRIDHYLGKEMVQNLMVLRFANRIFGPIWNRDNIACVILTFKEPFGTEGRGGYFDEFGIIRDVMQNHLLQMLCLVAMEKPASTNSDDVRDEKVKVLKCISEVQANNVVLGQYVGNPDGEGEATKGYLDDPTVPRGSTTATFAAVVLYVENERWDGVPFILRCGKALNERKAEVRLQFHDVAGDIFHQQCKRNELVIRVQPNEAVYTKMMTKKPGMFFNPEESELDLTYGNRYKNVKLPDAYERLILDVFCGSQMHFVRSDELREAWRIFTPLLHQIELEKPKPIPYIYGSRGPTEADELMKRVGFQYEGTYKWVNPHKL

[3] = test system: Bovine pulmonary arteries; assay: Smooth muscle protein expression in bovine pulmonary arteries incubated in Krebs buffer; conditions: 12 hr
Experimental: FIGS. 3A and 3B are graphs showing results for bovine pulmonary arteries that were incubated in Krebs buffer with and without G6PD inhibitor PD2958 (2958) and PD2124 (2124) for 12 hr. Vascular smooth cell-specific protein myocardin (MYOCD; FIG. 3A) and smooth muscle myosin heavy chain (MHY11; FIG. 3B) expression was increased by PD2958 (10 microM) and PD2124 (1 microM).
Bovine pulmonary arteries were incubated in Krebs buffer with and without G6PD inhibitor PD2958 (2958) and PD2124 (2124) for 12 hr. Vascular smooth cell-specific protein myocardin (MYOCD) and smooth muscle myosin heavy chain (MHY11) expression was increased by PD2958 (10 microM) and PD2124 (1 microM) (FIGS. 3A and 3B).

[4] = test system: mice with pulmonary hypertension; assay: Hypoxia (10% O2) pulmonary hypertension in mice; assay type: in vivo; conditions: S.C. 1.3 mg/Kg for 1 wk from wk 4 to wk 5, 10% O2
Experimental: Placebo and 2124 were injected S.C. (1.3 mg/Kg) for 1 wk from wk 4 to wk 5.

[5] = test system: Aortic rings of wild-type mice; assay: Relaxation of KCl pre-contracted aortic rings, wild-type mice; conditions: KCl (30 mM)
Experimental: (§2) FIG. 7 is a graph showing aortic rings of wild-type and G6PD-deficient pre-contracted with KCl (30 mM).
(§3) Aortic rings of wild-type and G6PD-deficient pre-contracted with KCl (30 mM).

[6] = test system: Aortic rings of G6PD-deficient mice; assay: Relaxation of KCl pre-contracted aortic rings, G6PD-deficient mice; conditions: KCl (30 mM)
Experimental: as §2, §3

[7] = test system: Rat pulmonary artery smooth muscle cells; assay: Apoptosis by Caspase3/7 assay; assay type: cell-based; conditions: 1 microM, 72 hr, N=5
Experimental: as §1
as §1, with “Rat” for “FIGS. 4A and 4B are graphs showing results for rat”, “cells” for “cells that”, “number/proliferation” for “number/proliferation (FIG. 4A)”, “apoptosis” for “apoptosis (FIG. 4B)”, “inhibitors.” for “inhibitors (FIG. 4A).”, “(FIGS. 4A and” for “(FIG.”

[8] = test system: Rat pulmonary artery smooth muscle cells; assay: Cell migration; assay type: cell-based; conditions: 1 microM, 72 hr, N=5
Experimental: (§4) FIGS. 5A and 5B are images (FIG. 5A) and a graph (FIG. 5B) showing rat pulmonary artery smooth muscle cells that were cultured in 15% DMEM media for 48 hr and cells were treated with newly synthesized G6PD drugs; PD2958 (2958) or vehicle control (Con) for 72 hr. Cells migration was determined. Cell migration was abrogated by PD2958 (1 microM). N=5 in each group.
as §4, with “Rat” for “FIGS. 5A and 5B are images (FIG. 5A) and a graph (FIG. 5B) showing rat”, “cells” for “cells that”, “group (FIGS. 5A and 5B).” for “group.”

## C[C@]12CC[C@H](O)CC1=CC[C@@H]1[C@@H]2CC[C@]2(C)C(=O)CC[C@@H]12 [PD109, 5-Androsten-3-beta-hydroxy-17-one (Dehydroepiandrosterone), reference compound]
[1]
  relaxation of pre-contracted pulmonary artery rings: relaxed
[2]
  Cell number/proliferation: decreased

## C[C@]12CC[C@H](O)C[C@@H]1CC[C@@H]1[C@@H]2CC[C@]2(C)[C@@H](C(=O)CO)CC[C@@H]12 [PD2124, (3β,5α)-3,21-Dihydroxypregnan-20-one]
G6PD
  IC50: 1 to 10 µM
[1]
  relaxation of pre-contracted pulmonary artery rings: relaxed
[3]; 1 microM
  myocardin (MYOCD) expression: increased
  smooth muscle myosin heavy chain (MHY11) expression: increased
[2]
  Cell number/proliferation: decreased
[4]
  TPR: reduced and reversed
  arterial elastance: reduced and reversed
  cardiac index: increased
  left ventricle (LV) stiffness: reduced and reversed
  pulmonary resistance determined as PAAT-to-ET ratio: reduced and reversed

## CCNC(=O)N[C@H]1CC[C@@]2(C)[C@@H](CC[C@@H]3[C@@H]2CC[C@]2(C)C(=O)CC[C@@H]32)C1 [PD2958, N-Ethyl-N′-[(3β,5α)-17-oxoandrostan-3-yl]urea]
[5]
  relaxation of pre-contracted aortic rings: relaxed in dose-dependent manner
[6]
  relaxation of pre-contracted aortic rings: not G6PD-deficient mice were relaxed
G6PD
  IC50: 1 to 10 µM
[1]
  relaxation of pre-contracted pulmonary artery rings: relaxed
[3]; 10 microM
  myocardin (MYOCD) expression: increased
  smooth muscle myosin heavy chain (MHY11) expression: increased
[2]
  Cell number/proliferation: decreased
[7]
  Cell apoptosis: increased
[8]
  Cell migration: abrogated

## CC(=O)[C@H]1CC[C@H]2[C@@H]3CC[C@H]4C[C@@H](NS(C)(=O)=O)CC[C@]4(C)[C@H]3CC[C@]12C [PD4091, N-[(3β,5α)-20-Oxopregnan-3-yl]methanesulfonamide]
G6PD
  IC50: 1 to 10 µM
